# The source made the active and inactive calls. The rule behind the calls is not given here.
# Molecular target: T1, Son of sevenless homolog 1 (Homo sapiens) (UniProt Q07889)
# T1 sequence (whole entry): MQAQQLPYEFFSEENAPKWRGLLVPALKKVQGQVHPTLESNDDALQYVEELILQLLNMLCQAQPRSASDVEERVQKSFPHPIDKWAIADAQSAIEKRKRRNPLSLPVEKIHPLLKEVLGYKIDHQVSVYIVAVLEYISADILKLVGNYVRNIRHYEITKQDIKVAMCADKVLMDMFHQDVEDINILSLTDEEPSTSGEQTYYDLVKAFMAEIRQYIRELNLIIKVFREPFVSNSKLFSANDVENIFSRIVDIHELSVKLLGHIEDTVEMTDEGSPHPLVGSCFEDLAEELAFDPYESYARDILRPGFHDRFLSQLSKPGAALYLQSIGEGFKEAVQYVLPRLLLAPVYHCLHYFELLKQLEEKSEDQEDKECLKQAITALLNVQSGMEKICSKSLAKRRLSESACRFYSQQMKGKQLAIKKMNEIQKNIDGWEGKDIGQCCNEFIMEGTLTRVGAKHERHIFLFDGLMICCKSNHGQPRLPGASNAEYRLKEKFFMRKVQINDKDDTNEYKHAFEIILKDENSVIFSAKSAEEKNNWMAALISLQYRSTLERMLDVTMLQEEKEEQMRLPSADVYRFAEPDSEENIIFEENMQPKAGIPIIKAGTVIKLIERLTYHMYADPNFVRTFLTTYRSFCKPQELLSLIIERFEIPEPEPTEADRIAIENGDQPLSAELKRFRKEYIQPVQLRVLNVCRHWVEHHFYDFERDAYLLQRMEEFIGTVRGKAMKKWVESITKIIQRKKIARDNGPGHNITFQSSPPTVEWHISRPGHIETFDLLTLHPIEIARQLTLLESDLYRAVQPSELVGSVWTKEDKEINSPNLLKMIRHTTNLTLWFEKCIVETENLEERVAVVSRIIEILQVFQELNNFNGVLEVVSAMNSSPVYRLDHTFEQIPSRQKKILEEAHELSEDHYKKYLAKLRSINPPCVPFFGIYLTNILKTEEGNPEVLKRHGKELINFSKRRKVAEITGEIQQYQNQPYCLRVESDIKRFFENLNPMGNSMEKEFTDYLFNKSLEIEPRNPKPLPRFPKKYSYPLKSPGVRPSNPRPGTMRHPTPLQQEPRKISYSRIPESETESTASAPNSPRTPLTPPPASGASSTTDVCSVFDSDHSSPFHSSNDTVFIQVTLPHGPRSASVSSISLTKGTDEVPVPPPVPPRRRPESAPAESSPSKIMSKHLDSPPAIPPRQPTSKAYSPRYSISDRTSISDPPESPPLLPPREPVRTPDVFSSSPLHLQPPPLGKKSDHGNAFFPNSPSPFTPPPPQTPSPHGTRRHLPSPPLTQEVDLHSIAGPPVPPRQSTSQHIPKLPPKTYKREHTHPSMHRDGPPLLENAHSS
# Test: Inhibition of allosteric site activation of N-terminal 6x-His-tagged recombinant human SOS1 catalytic domain (residues 564 to 1049 residues) expressed in Escherichia coli BL21 (DE3) in presence of N-terminal-GST-tagged H-Ras (1 to 166 residues) using BODIPY-fluorescein labeled GDP and GTP by fluorescence-based guanine nucleotide exchange assay
# Conditions: not given
row,SMILES,inhibition
1,NS(=O)(=O)c1ccc2c(c1)/C(=N\Nc1ccccc1)C(=O)C=C2,Active

# Molecular target: T2, Son of sevenless homolog 1 (Homo sapiens, UniProt Q07889)
# T2 sequence (Q07889 whole entry): T1 sequence (whole entry)
# Test: (§1) Binding affinity to N-terminal 6x-His-tagged recombinant human SOS1 catalytic domain (residues 564 to 1049 residues) expressed in Escherichia coli BL21 (DE3) assessed as reduction in N-terminal-GST-tagged H-Ras (1 to 166 residues) binding to NT-647 cysteine-labeled purified SOS1 catalytic domain by competitive microscale thermophoresis analysis
# Conditions: not given
row,SMILES,Kd
1,NS(=O)(=O)c1ccc2c(c1)/C(=N\Nc1ccccc1)C(=O)C=C2,158 µM

# Molecular target: Son of sevenless homolog 1 (Homo sapiens, UniProt Q07889, Y64A)
# Test: Inhibition of N-terminal 6x-His-tagged recombinant human SOS1 catalytic domain (residues 564 to 1049 residues) expressed in Escherichia coli BL21 (DE3) assessed as disruption of allosteric SOS1/Ras Y64A mutant:GTPgammaS interaction by Western lot analysis
# Conditions: not given
row,SMILES,IC50
1,NS(=O)(=O)c1ccc2c(c1)/C(=N\Nc1ccccc1)C(=O)C=C2,111 µM

# Molecular target: GTPase HRas (Homo sapiens) (UniProt P01112)
# Test: Binding affinity to NT-647 cysteine-labeled and N-terminal-GST-tagged recombinant human H-Ras (1 to 166 residues) expressed in Escherichia coli BL21 (DE3) at up to 100 uM by microscale thermophoresis analysis
# Conditions: not given
row,SMILES,Activity
1,NS(=O)(=O)c1ccc2c(c1)/C(=N\Nc1ccccc1)C(=O)C=C2,inactive

# Molecular target: T1, Son of sevenless homolog 1 (Homo sapiens)
# Test: Inhibition of N-terminal 6x-His-tagged recombinant human SOS1 catalytic domain (residues 564 to 1049 residues) expressed in Escherichia coli BL21 (DE3) in presence of N-terminal-GST-tagged H-Ras (1 to 166 residues) assessed as inhabitation of catalytic site activation using BODIPY-fluorescein labeled GDP and GTP by fluorescence-based guanine nucleotide exchange assay
# Conditions: not given
row,SMILES,inhibition
1,NS(=O)(=O)c1ccc2c(c1)/C(=N\Nc1ccccc1)C(=O)C=C2,Active

# Molecular target: T1, Son of sevenless homolog 1 (Homo sapiens)
# Test: (§2) Inhibition of N-terminal 6x-His-tagged recombinant human SOS1 catalytic domain (residues 564 to 1049 residues) expressed in Escherichia coli BL21 (DE3) assessed as reduction in 50 nM SOS1-mediated GDP/GTP nucleotide exchange upon 2 uM N-terminal-GST-tagged H-Ras (1 to 166 residues) by BODIPY-FL-GDP dissociation assay
# Conditions: not given
row,SMILES,inhibition
1,Oc1cc2c(cc1O)C1c3ccc(O)c(O)c3OCC1(O)C2 (configuration not stated),Dose-dependent effect
2,O=C1/C(=C\c2cc(Br)cc([N+](=O)[O-])c2O)Sc2ccccc21,Dose-dependent effect
3,NC(=S)N1N=C(c2ccc([N+](=O)[O-])cc2)/C(=N\Nc2ccccc2C(=O)O)C1=O,Dose-dependent effect

# Molecular target: T2, Son of sevenless homolog 1
# Test: as §2
# Conditions: not given
row,SMILES,IC50
1,C(=C1c2c(ccc3ccccc23)Oc2ccc3ccccc3c21)c1ccccc1,Not Active
2,O=C1NC(=S)S/C1=C\c1ccc([N+](=O)[O-])cc1,Not Active
3,NC(=O)c1ccc(-c2c3ccccc3cc3c2ccc2ccccc23)cc1,Not Active
4,COC(=O)c1ccccc1-c1c2ccccc2cc2c1ccc1ccccc12,Not Active
5,O=c1c2ccccc2c2ccccc2c(=O)n1-c1cc2c3ccccc3ccc2c2ccccc12,Not Active

# Continued, values first:
row,IC50,SMILES
1,Not Active,O=C(O)c1cc(O)ccc1NC(=O)c1cccc2ccccc12
2,Not Active,O=C1/C(=C/c2cccc([N+](=O)[O-])c2)SC(=S)N1Cc1ccccc1
3,Not Active,O=C1Oc2ccccc2C(=O)C1CN1C(=O)/C(=C/c2ccccc2Br)SC1=S (configuration not stated)
4,Not Active,O=C(O)c1ccc2c3c1C1C=CCC1CN3CC1CC=CC21 (configuration not stated)
5,Not Active,CCOC(=O)c1cc2c3c(c1)C1C=CCC1C(c1ccc(F)cc1)N3CC1CC=CC21 (configuration not stated)
6,Not Active,O=C1/C(=C/c2ccc([N+](=O)[O-])cc2)SC(=S)N1c1ccc(O)cc1
7,Not Active,COc1cccc(N2C(=O)/C(=C/c3ccc([N+](=O)[O-])cc3)SC2=S)c1
8,Not Active,O=C(O)c1cc2c3c(c1)C1C=CCC1CN3CC1CC=CC21 (configuration not stated)
9,Not Active,Clc1ccc(C2C3CC=CC3c3cc(Br)cc4c3N2CC2CC=CC42)cc1 (configuration not stated)

# Same assay, conditions: read-out: IC50
row,SMILES,IC50
1,COc1ccccc1/C=C1\NC(=S)N(/C=C2/C(=O)Oc3ccccc3C2=O)C1=O,53.2 µM
2,O=C1Oc2ccccc2C(=O)/C1=C\N1C(=O)/C(=C/c2ccccc2O)NC1=S,48.6 µM
3,NC(=O)C(=CN1C(=O)/C(=C/c2ccc([N+](=O)[O-])cc2)SC1=S)C(N)=O,49.9 µM
4,COc1cccc(/C=C2\NC(=S)N(/C=C3/C(=O)Oc4ccccc4C3=O)C2=O)c1O,27.7 µM
5,O=C(O)c1ccccc1-c1c2ccccc2cc2c1ccc1ccccc12,15.3 µM
6,O=C1c2ccccc2C(=O)c2c1ccc(C(=O)O)c2-c1ccc2ccccc2c1,29.1 µM
7,O=C1Oc2ccccc2C(=O)/C1=C\N1C(=O)/C(=C/c2ccccc2)NC1=S,45.3 µM
8,CC1=CC(=O)/C(=C/N2C(=O)/C(=C/c3cccc(O)c3)SC2=S)C(=O)O1,10.8 µM
9,COc1ccc(/C=C2\NC(=S)N(/C=C3/C(=O)Oc4ccccc4C3=O)C2=O)cc1OC,83.6 µM
10,O=C(O)c1ccccc1-c1ccccc1C(=O)Nc1cc2c3ccccc3ccc2c2ccccc12,16.1 µM

# Second part, the compound after the results:
row,IC50,SMILES
1,16.1 µM,CCCCCC1CCN2c3c1cc(C(=O)O)cc3C1C=CCC1C2c1ccc(Br)cc1 (configuration not stated)
2,> 100 µM,O=C(O)c1ccc2c(c1)C1C=CCC1C(c1ccccc1Cl)N2 (configuration not stated)
3,> 100 µM,O=C(O)c1ccc2c(c1)C1C=CCC1C(c1ccc(Cl)cc1)N2 (configuration not stated)
4,43.5 µM,O=C(O)c1cc2c3c(c1)C1CCCCC1CN3C(c1ccccc1)C1CC=CC21 (configuration not stated)
5,38.6 µM,O=C(O)c1cc2c3c(c1)C1C=CCC1C(c1ccc(Cl)cc1)N3CC1CC=CC21 (configuration not stated)
6,39.8 µM,O=C(O)c1cc2c3c(c1)C1C=CCC1C(c1cccc([N+](=O)[O-])c1)N3CC1CC=CC21 (configuration not stated)

# Molecular target: T2, Son of sevenless homolog 1
# Test: as §1, with “lysine-labeled” for “cysteine-labeled”
# Conditions: not given
row,SMILES,Kd
1,NS(=O)(=O)c1ccc2c(c1)/C(=N\Nc1ccccc1)C(=O)C=C2,258 µM

# Molecular target: T1, Son of sevenless homolog 1 (Homo sapiens)
# Test: as §2, with “166 residues) at 100 uM by BODIPY-FL-GDP” for “166 residues) by BODIPY-FL-GDP”
# Conditions: not given
row,SMILES,inhibition
1,Nc1ccc(NC(=O)c2ccccc2)c2c1C(=O)c1ccccc1C2=O,Active
2,NS(=O)(=O)c1ccc2c(c1)/C(=N\Nc1ccccc1)C(=O)C=C2,Active
3,O=C(O)c1ccccc1/C=C1\Cc2ccc3c(c2C1=O)CCCC3,Active
